From ChEMBL document CHEMBL1201862, “PubChem BioAssay data set” (2004) come the findings set out here.

Calls of active or inactive are those of the source.

Tested on in the first assay: not listed separately
Put plainly: Luminescence Cell-Based Dose Response HTS to Identify Activators of Luciferase Translation or Activity in H4 […] Cells. [Related pubchem assays: 1829 (Project Summary), 1814 (Primary HTS)]. The format is functional.
Settings: not given
As to `Cn1cc(/C=C(\NC(=O)c2ccccc2Cl)C(=O)NCCN2CCOCC2)c2ccccc21`, the EC50 is listed as > 120 µM (not active).
For the molecule `Cc1cccc(OCC2=NS(=O)(=O)c3ccccc3N2)c1`, the half-maximal effective concentration (EC50) is 9.74 µM (active).
Consider `CC(C)(C)c1ccc(OCc2ccc(C(=O)NCc3cccnc3)o2)cc1`, for which the concentration for a half-maximal effect (EC50) was 5.94 µM (active).
On to `Cc1c(OCC(=O)NCc2cccnc2)ccc2c3c(c(=O)oc12)CCC3`, for which the EC50 is reported as > 120 µM (not active).
On to `Cc1cc(CNC(=O)c2ccc3nc(Cc4ccccc4F)oc3c2)nn1C`, for which the EC50 was 58.7 µM (active).
For `CCOC(=O)c1c(C)[nH]c(/C=N/c2ccc(OC)cc2)c1O`, the EC50 was 46.9 µM (active).
`C(=N\C(/N=C/c1ccco1)c1ccco1)/c1ccco1`: the EC50 is recorded as > 120 µM (not active).
Regarding `C/C(=N\n1nnnc1Nc1ccccc1)c1ccc(N)cc1`, the EC50 is > 120 µM (not active).
The same measure, in the same setting: next, `COc1ccc(S(=O)(=O)n2ccc(-c3ccc4c(c3)CCC(C)(C)O4)n2)cc1`: 17.2 µM (active).

Tested on in another assay: not listed separately
The assay is described as follows: Luminescence Cell-Based Dose Confirmation HTS to Identify Activators of 5'UTR Stem-Loop Driven Alpha-Synuclein mRNA Translation in H4 Neuroglioblastoma Cells. [Related pubchem assays: 1829 (Project Summary), 1814 (Primary HTS)].
Settings: not given
It counts as functional.
Take `Cn1cc(/C=C(\NC(=O)c2ccccc2Cl)C(=O)NCCN2CCOCC2)c2ccccc21`: the 50% effective concentration (EC50) is on record as > 120 µM (not active).
For the molecule `Cc1cccc(OCC2=NS(=O)(=O)c3ccccc3N2)c1`, the half-maximal effective concentration (EC50) was > 120 µM (not active).
In the case of `CC(C)(C)c1ccc(OCc2ccc(C(=O)NCc3cccnc3)o2)cc1`, the EC50 was 6.24 µM (active).
For the molecule `Cc1c(OCC(=O)NCc2cccnc2)ccc2c3c(c(=O)oc12)CCC3`, the EC50 is > 120 µM (not active).
Consider `Cc1cc(CNC(=O)c2ccc3nc(Cc4ccccc4F)oc3c2)nn1C`, for which the EC50 is 0.3 µM (active).
For the molecule `CCOC(=O)c1c(C)[nH]c(/C=N/c2ccc(OC)cc2)c1O`, the EC50 was 16.5 µM (active).
As for `C(=N\C(/N=C/c1ccco1)c1ccco1)/c1ccco1`, the 50% effective concentration (EC50) is 28.9 µM (active).
With `C/C(=N\n1nnnc1Nc1ccccc1)c1ccc(N)cc1`, the concentration for a half-maximal effect (EC50) is given as > 120 µM (not active).
Regarding `COc1ccc(S(=O)(=O)n2ccc(-c3ccc4c(c3)CCC(C)(C)O4)n2)cc1`, the 50% effective concentration (EC50) is recorded as > 120 µM (not active).

A further assay deals with T1, Replicative DNA helicase DnaB (Mycobacterium tuberculosis, UniProt P9WMR3).
T1 sequence (P9WMR3 whole entry): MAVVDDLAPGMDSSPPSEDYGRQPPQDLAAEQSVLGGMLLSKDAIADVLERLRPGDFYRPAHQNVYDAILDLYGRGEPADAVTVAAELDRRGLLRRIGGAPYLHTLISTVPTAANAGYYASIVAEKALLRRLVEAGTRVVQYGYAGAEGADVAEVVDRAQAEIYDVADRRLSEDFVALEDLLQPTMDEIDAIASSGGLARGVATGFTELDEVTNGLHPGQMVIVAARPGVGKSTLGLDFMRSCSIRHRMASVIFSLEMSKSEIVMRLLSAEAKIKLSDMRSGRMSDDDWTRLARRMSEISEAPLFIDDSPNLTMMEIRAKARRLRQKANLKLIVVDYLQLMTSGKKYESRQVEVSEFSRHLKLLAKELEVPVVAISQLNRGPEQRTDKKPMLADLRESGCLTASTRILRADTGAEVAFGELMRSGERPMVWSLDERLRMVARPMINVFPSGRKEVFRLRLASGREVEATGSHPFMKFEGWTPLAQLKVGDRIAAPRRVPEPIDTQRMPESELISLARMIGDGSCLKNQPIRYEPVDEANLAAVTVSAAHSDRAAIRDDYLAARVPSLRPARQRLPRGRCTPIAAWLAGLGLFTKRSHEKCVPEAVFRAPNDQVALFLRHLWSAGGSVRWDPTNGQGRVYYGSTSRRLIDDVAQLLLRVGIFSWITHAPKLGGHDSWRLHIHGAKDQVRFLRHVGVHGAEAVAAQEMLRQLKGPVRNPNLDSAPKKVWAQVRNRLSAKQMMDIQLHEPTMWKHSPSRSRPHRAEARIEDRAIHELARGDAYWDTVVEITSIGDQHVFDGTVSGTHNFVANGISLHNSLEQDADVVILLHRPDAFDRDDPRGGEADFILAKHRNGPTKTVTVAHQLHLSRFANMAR
The assay is described as follows: DnaB intein splicing inhibitors, dose response, biochemical, cell-free fluorescence (AID 449749).
Settings: not given
The format is functional.
Consider `COc1ccc(CN(C(=O)CSc2nnc(-c3ccccc3C)o2)c2ccc(F)cc2)cc1`, for which the half-maximal activity concentration (AC50) is 1.42 µM (active).

In another assay the target is Cytochrome P450 3A4 (Homo sapiens, UniProt P08684).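 Also: CYP3A4 tested as one member of a cytochrome P450 panel screen.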
Chain of Cytochrome P450 3A4 (P08684 whole entry): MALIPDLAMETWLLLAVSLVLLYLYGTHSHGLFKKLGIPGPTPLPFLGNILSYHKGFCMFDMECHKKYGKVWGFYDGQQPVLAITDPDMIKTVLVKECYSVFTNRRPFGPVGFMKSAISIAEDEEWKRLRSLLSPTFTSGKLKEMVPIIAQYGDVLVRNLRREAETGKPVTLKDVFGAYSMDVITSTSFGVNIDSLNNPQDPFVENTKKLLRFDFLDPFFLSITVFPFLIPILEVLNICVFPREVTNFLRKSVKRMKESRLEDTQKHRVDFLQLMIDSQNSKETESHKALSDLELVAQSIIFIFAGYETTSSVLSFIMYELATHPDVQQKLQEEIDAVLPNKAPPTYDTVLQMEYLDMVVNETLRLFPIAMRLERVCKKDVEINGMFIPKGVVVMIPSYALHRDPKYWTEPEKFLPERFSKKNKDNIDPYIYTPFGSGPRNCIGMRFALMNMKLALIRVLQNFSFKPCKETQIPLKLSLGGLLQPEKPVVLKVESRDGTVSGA
Settings: not given
Take `C/C(=N\n1nnnc1Nc1ccccc1)c1ccc(N)cc1`: the half-maximal activity concentration (AC50) was 22.4 µM (inconclusive).

In a further assay the target is T2, Protein RecA (Mycobacterium tuberculosis, UniProt P9WHJ3).
T2 sequence (P9WHJ3 whole entry): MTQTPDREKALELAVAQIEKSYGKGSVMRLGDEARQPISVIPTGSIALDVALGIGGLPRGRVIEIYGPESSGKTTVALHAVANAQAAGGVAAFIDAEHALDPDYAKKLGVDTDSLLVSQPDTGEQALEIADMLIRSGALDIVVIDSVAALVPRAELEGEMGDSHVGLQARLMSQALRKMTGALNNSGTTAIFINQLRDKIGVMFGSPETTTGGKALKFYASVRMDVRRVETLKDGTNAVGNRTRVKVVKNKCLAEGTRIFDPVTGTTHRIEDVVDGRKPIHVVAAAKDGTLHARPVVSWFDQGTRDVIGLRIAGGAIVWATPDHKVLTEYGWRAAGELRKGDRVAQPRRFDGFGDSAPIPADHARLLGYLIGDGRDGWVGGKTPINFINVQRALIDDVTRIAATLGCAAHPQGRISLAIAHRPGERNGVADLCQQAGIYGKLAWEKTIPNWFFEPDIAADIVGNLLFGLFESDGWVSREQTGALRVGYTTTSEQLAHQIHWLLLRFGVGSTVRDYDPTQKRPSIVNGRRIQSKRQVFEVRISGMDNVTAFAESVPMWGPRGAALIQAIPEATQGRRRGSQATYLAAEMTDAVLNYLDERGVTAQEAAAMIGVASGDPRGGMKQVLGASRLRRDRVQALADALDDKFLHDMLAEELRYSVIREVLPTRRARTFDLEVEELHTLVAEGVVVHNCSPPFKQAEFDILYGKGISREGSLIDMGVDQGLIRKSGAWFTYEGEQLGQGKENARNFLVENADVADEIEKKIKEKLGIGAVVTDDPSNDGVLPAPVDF
Put plainly: Fluorescence Cell-Free Homogeneous Dose Retest to Identify Inhibitors of RecA-Intein Splicing Activity. [Related pubchem assays (depositor defined):AID2097, AID2223, AID489010, AID492950].
Settings: not given
It counts as functional.
Regarding `COc1ccc(CN(C(=O)CSc2nnc(-c3ccccc3C)o2)c2ccc(F)cc2)cc1`, the EC50 is 8.86 µM (active).

The target of another assay is Cytochrome P450 2C19 (Homo sapiens, UniProt P33261). Put plainly: Cytochrome panel assay with activity outcomes. Panel member name: p450-cyp2c19 Compounds with AC50 equal or less than 10 uM are considered active. The format is functional. The conditions noted are these: read-out: AC50.
Chain of Cytochrome P450 2C19 (P33261 whole entry): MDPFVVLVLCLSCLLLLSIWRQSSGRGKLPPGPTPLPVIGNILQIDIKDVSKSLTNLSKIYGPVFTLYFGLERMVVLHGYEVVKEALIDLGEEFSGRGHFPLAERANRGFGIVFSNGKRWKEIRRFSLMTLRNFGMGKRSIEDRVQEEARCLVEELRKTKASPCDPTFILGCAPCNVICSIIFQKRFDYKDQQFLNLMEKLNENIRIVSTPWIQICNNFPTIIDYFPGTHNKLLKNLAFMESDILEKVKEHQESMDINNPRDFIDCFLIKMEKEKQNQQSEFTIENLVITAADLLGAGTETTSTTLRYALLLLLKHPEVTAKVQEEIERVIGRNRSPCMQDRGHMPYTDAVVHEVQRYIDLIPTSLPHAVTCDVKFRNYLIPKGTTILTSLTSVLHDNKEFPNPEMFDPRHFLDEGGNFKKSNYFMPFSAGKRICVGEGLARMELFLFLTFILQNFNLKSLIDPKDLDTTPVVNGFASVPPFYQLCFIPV
With `C/C(=N\n1nnnc1Nc1ccccc1)c1ccc(N)cc1`, the half-maximal activity concentration (AC50) was 3.55 µM (inconclusive).

The next assay concerns H4. Put plainly: Luminescence Cell-Based Dose Response HTS to Identify Activators of 5'UTR Stem-Loop Driven Prion Protein mRNA Translation in H4 Neuroglioblastoma Cells. [Related pubchem assays: 1829 (Project Summary), 1814 (Primary HTS)]. It counts as functional. The conditions noted are these: Homo sapiens.
Turning to `Cn1cc(/C=C(\NC(=O)c2ccccc2Cl)C(=O)NCCN2CCOCC2)c2ccccc21`, the 50% effective concentration (EC50) is given as > 120 µM (not active).
Still for that read-out and setting: for `Cc1cccc(OCC2=NS(=O)(=O)c3ccccc3N2)c1` the value was > 120 µM (not active); for `CC(C)(C)c1ccc(OCc2ccc(C(=O)NCc3cccnc3)o2)cc1`, > 120 µM (not active); for `Cc1c(OCC(=O)NCc2cccnc2)ccc2c3c(c(=O)oc12)CCC3`, 15.4 µM (active).
On to `Cc1cc(CNC(=O)c2ccc3nc(Cc4ccccc4F)oc3c2)nn1C`, for which the EC50 was 7.51 µM (active).
Still for that read-out and setting: for `CCOC(=O)c1c(C)[nH]c(/C=N/c2ccc(OC)cc2)c1O` the value was 4.53 µM (active); for `C(=N\C(/N=C/c1ccco1)c1ccco1)/c1ccco1`, > 120 µM (not active).
On to `C/C(=N\n1nnnc1Nc1ccccc1)c1ccc(N)cc1`, for which the concentration for a half-maximal effect (EC50) is given as > 120 µM (not active).
`COc1ccc(S(=O)(=O)n2ccc(-c3ccc4c(c3)CCC(C)(C)O4)n2)cc1`: the concentration giving a half-maximal response (EC50) was 43.4 µM (active).

Another assay has as its target T3, Cytochrome P450 1A2 (Homo sapiens, UniProt P05177).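 Also: PubChem cytochrome P450 panel assay, CYP1A2 panel member.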
T3 sequence (P05177 whole entry): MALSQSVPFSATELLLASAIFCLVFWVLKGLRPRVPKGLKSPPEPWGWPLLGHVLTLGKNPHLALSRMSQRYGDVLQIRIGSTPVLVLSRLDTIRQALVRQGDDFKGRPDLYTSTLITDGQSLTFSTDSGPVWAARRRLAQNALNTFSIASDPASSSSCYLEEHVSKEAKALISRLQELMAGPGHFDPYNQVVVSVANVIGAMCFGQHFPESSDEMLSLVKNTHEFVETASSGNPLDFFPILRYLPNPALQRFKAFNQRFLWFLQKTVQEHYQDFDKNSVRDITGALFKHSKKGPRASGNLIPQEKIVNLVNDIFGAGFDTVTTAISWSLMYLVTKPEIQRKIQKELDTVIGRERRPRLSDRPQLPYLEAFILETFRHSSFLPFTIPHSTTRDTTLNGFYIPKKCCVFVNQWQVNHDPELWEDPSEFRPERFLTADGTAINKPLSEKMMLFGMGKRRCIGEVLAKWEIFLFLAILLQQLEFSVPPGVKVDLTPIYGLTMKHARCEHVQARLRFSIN
Settings: not given
As for `C/C(=N\n1nnnc1Nc1ccccc1)c1ccc(N)cc1`, the AC50 is 12.6 µM (inconclusive).

Tested on in another assay: not listed separately
Put plainly: HEp-2 cell cytotoxicity, dose response, cytotoxicity control for RSV inhibitor project, HTS (AID 2410). The format is functional. The settings on record: human respiratory syncytial virus.
Take `COc1ccc(CN(C(=O)CSc2nnc(-c3ccccc3C)o2)c2ccc(F)cc2)cc1`: the CC50 is 29.4 µM (active).

As usually defined, the EC50 is the concentration giving half of the maximal effect. The term AC50 denotes the concentration giving half of the maximal activity seen. By CC50 is commonly meant the concentration giving 50% cytotoxicity.
